Among the data in patent US10703764B2, “Benzopiperazine compositions as BET bromodomain inhibitors” (FORMA Therapeutics, Inc., priority 2013, dated 2020) are IC50 values, retold here.

Test [1] concerns the target T1, BRD4 BD1 (Homo sapiens, UniProt O60885).
T1 construct: made in house
The test is described as follows: AlphaScreen binding assay, BRD4 Bromodomain 1. In outline:
(§1)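 Compound dilution series were mixed with His-tagged BRD4 bromodomain and biotinylated tetra-acetylated H4 (1-21) peptide at pH 7.3 (BD1 and peptide at 50 nM, BD2 and peptide at 100 nM). Donor and acceptor beads were then added, and plates were equilibrated at least 1 h before reading. IC50 values were fitted with a four-parameter logistic model.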

Test [2] concerns MV4-11 cells. The test is described as follows: Oncology cell growth assay (3-day proliferation, CellTiter-Glo). Conditions: Homo sapiens, AML cell line MV4-11, 72 hours, compounds grouped by IC50 range, read-out: MV4-11 IC50 (inhibition of proliferation, gIC50). In kind it is cell-based. The method in brief: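 72 h, 37° C, 5% CO2; MV4-11, 3000 cells/well, RPMI 1640 + 10% FBS. Compound final 10, 3.3, 1.1, 0.37, 0.12, 0.041, 0.013, 0.0045 μM. Readout CellTiter-Glo luminescence; gIC50 by 4-parameter logistic fit, normalised to DMSO and no-cell background.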
On the technique in general: In ATP-based viability assays light output follows the ATP content of the culture.

For test [3], the target named is T2, BRD4 BD2 (Homo sapiens, UniProt O60885).
T2 construct: made in house
Kind of test: AlphaScreen binding assay, BRD4 Bromodomain 2. In outline: as §1
Background: In Alpha technology, singlet oxygen from a donor bead excites a nearby acceptor bead.

Read-outs that look alike come from different tables or passages of the source.

`CC(=O)N1c2ccc(-c3ccc(N4CCCS4(=O)=O)cc3)cc2N(C(=O)OC2CCC(F)(F)CC2)C[C@@H]1C` [Example I-36, 4,4-difluorocyclohexyl (3S)-4-acetyl-7-[4-(1,1-dioxo-1λ^6,2-thiazolidin-2-yl)phenyl]-3-methyl-1,2,3,4-tetrahydroquinoxaline-1-carboxylate]: the IC50 in test [1] was in the range of 1 to 10 µM; in test [2] (MV4-11, 72 h), 0.1 to 0.5 µM; in test [3], 0.05 to 0.5 µM.

For the compound `CC(=O)N1c2ccc(-c3cnn(C4CS(=O)(=O)C4)c3)cc2N(C(=O)OC2CCOCC2)C[C@@H]1C` [Example I-37, oxan-4-yl (3S)-4-acetyl-7-[1-(1,1-dioxo-1λ^6-thietan-3-yl)-1H-pyrazol-4-yl]-3-methyl-1,2,3,4-tetrahydroquinoxaline-1-carboxylate], the IC50 in test [1] is 0.1 to 1 µM; in test [2] (MV4-11, 72 h), 0.1 to 0.5 µM; in test [3], 0.05 to 0.5 µM.

As for `CC(=O)N1c2ccc(-c3cnn(C4CCOCC4)c3)cc2N(C(=O)OC2CCOCC2)C[C@@H]1C` [Example I-38, (S)-tetrahydro-2H-pyran-4-yl 4-acetyl-3-methyl-7-(1-(tetrahydro-2H-pyran-4-yl)-1H-pyrazol-4-yl)-3,4-dihydroquinoxaline-1(2H)-carboxylate], the IC50 in test [1] was 0.1 to 1 µM; in test [2] (MV4-11, 72 h), 0.1 to 0.5 µM; in test [3], 0.05 to 0.5 µM.

For `CC(=O)N1c2ccc(-c3cnn(C4CCOCC4)c3)cc2N(C(=O)OC2CCC2)C[C@@H]1C` [Example I-39, (S)-cyclobutyl 4-acetyl-3-methyl-7-(1-(tetrahydro-2H-pyran-4-yl)-1H-pyrazol-4-yl)-3,4-dihydroquinoxaline-1(2H)-carboxylate], the IC50 in test [1] is 0.1 to 1 µM; in test [2] (MV4-11, 72 h), under 0.1 µM; in test [3], under 0.05 µM.

Consider `COC(=O)N1c2ccc(-c3cnn(C4CC4)c3)cc2N(C(=O)OC2CCCC2)C[C@@H]1C` [Example I-40, (S)-4-cyclopentyl 1-methyl 6-(1-cyclopropyl-1H-pyrazol-4-yl)-2-methyl-2,3-dihydroquinoxaline-1,4-dicarboxylate], for which the IC50 in test [1] lay within 0.1 to 1 µM; in test [2] it was 0.1 to 0.5 µM; in test [3], 0.05 to 0.5 µM.

Take `C[C@H]1CN(C(=O)OC2CCCC2)c2cc(-c3cnn(C4CC4)c3)ccc2N1C(=O)C1CC1` [Example I-41, (S)-cyclopentyl 4-(cyclopropanecarbonyl)-7-(1-cyclopropyl-1H-pyrazol-4-yl)-3-methyl-3,4-dihydroquinoxaline-1 (2H)-carboxylate]: the IC50 was in the range of 0.1 to 1 µM in test [1]; 0.1 to 0.5 µM in test [2] (MV4-11, 72 h); 0.05 to 0.5 µM in test [3].

For `COC(=O)N1c2ccc(-c3cnn(C4CC4)c3)cc2N(C(=O)C2CC2)C[C@@H]1C` [Example I-42, (S)-methyl 4-(cyclopropanecarbonyl)-6-(1-cyclopropyl-1H-pyrazol-4-yl)-2-methyl-3,4-dihydroquinoxaline-1 (2H)-carboxylate], the IC50 lay in the range of 0.1 to 1 µM in test [1], 0.1 to 0.5 µM in test [2] and 0.05 to 0.5 µM in test [3].

Take `COC(=O)N1c2ccc(-c3cnn(C4CC4)c3)cc2N(C(=O)OC(C)C)C[C@@H]1C` [Example I-43, (S)-4-isopropyl 1-methyl 6-(1-cyclopropyl-1H-pyrazol-4-yl)-2-methyl-2,3-dihydroquinoxaline-1,4-dicarboxylate]: the IC50 in test [1] was 0.1 to 1 µM; in test [2] (MV4-11, 72 h), over 0.5 µM; in test [3] it was 0.05 to 0.5 µM.

Take `CC(=O)N1c2ccc(-c3cnn(C4CC4)c3)cc2N(c2nc3ccccc3o2)C[C@@H]1C` [Example I-44, (S)-1-(4-(benzo[d]oxazol-2-yl)-6-(1-cyclopropyl-1H-pyrazol-4-yl)-2-methyl-3,4-dihydroquinoxalin-1(2H)-yl)ethanone]: the IC50 in test [1] lay within 0.1 to 1 µM; in test [2] (MV4-11, 72 h), 0.1 to 0.5 µM; in test [3], 0.05 to 0.5 µM.

Consider `CC(=O)N1c2ccc(-c3ccc(S(C)(=O)=O)cc3)cc2N(c2nc3ccccc3o2)C[C@@H]1C` [Example I-46, (S)-1-(4-(benzo[d]oxazol-2-yl)-2-methyl-6-(4-(methylsulfonyl)phenyl)-3,4-dihydroquinoxalin-1(2H)-yl)ethanone], for which the IC50 in test [1] is 0.1 to 1 µM; in test [2] (MV4-11, 72 h) it was 0.1 to 0.5 µM; in test [3], over 0.5 µM.

As to `CC(=O)N1c2ccc(-c3cnn(C4CC4)c3)cc2N(c2ncc3ccccc3n2)C[C@@H]1C` [Example I-51, (S)-1-(6-(1-cyclopropyl-1H-pyrazol-4-yl)-2-methyl-4-(quinazolin-2-yl)-3,4-dihydroquinoxalin-1(2H)-yl)ethanone], the IC50 lay within 0.1 to 1 µM in test [1]; 0.1 to 0.5 µM in test [2] (MV4-11, 72 h); 0.05 to 0.5 µM in test [3].

Regarding `CC(=O)N1c2ccc(-c3cnn(C4CC4)c3)cc2N(c2nn(C)c3ccccc23)C[C@@H]1C` [Example I-52, (S)-1-(6-(1-cyclopropyl-1H-pyrazol-4-yl)-2-methyl-4-(1-methyl-1H-indazol-3-yl)-3,4-dihydroquinoxalin-1(2H)-yl)ethanone], the IC50 is 0.1 to 1 µM in test [1]; under 0.1 µM in test [2] (MV4-11, 72 h); under 0.05 µM in test [3].

`CC(=O)N1c2ccc(-c3cnn(C4COC4)c3)cc2N(c2nn(C)c3ccccc23)C[C@@H]1C` [Example I-53, (S)-1-(2-methyl-4-(1-methyl-1H-indazol-3-yl)-6-(1-(oxetan-3-yl)-1H-pyrazol-4-yl)-3,4-dihydroquinoxalin-1(2H)-yl)ethanone]: the IC50 is 0.1 to 1 µM in test [1]; 0.1 to 0.5 µM in test [2] (MV4-11, 72 h); under 0.05 µM in test [3].

For the compound `CC(=O)N1c2ccc(-c3cnn(C4CC4)c3)cc2N(c2nn(C)c3cc(F)ccc23)C[C@@H]1C` [Example I-54, (S)-1-(6-(1-cyclopropyl-1H-pyrazol-4-yl)-4-(6-fluoro-1-methyl-1H-indazol-3-yl)-2-methyl-3,4-dihydroquinoxalin-1(2H)-yl)ethanone], the IC50 in test [1] is 0.1 to 1 µM; in test [2] (MV4-11, 72 h), under 0.1 µM; in test [3], 0.05 to 0.5 µM.

As for `CC(=O)N1c2ccc(-c3cnn(C4CC4)c3)cc2N(c2nn(C)c3ccc(F)cc23)C[C@@H]1C` [Example I-55, (S)-1-(6-(1-cyclopropyl-1H-pyrazol-4-yl)-4-(5-fluoro-1-methyl-1H-indazol-3-yl)-2-methyl-3,4-dihydroquinoxalin-1(2H)-yl)ethanone], the IC50 was 0.1 to 1 µM in test [1]; 0.1 to 0.5 µM in test [2] (MV4-11, 72 h); under 0.05 µM in test [3].

As for `CC(=O)N1c2ccc(-c3cnn(C4COC4)c3)cc2N(C(=O)OC2COC2)C[C@@H]1C` [Example I-59, (S)-oxetan-3-yl 4-acetyl-3-methyl-7-(1-(oxetan-3-yl)-1H-pyrazol-4-yl)-3,4-dihydroquinoxaline-1(2H)-carboxylate], the IC50 was 0.1 to 1 µM in test [1]; over 0.5 µM in test [2] (MV4-11, 72 h); 0.05 to 0.5 µM in test [3].

For the compound `CC(=O)N1c2ccc(-c3cnn(C4COC4)c3)cc2N(C(=O)OCC2CCC2)C[C@@H]1C` [Example I-60, (S)-cyclobutylmethyl 4-acetyl-3-methyl-7-(1-(oxetan-3-yl)-1H-pyrazol-4-yl)-3,4-dihydroquinoxaline-1(2H)-carboxylate], the IC50 fell in the range of 0.1 to 1 µM in test [1]; 0.1 to 0.5 µM in test [2] (MV4-11, 72 h); 0.05 to 0.5 µM in test [3].

`CC(=O)N1c2ccc(-c3cnn(C4COC4)c3)cc2N(C(=O)OCC(Cl)Cl)C[C@@H]1C` [Example I-62, (S)-2,2-dichloroethyl 4-acetyl-3-methyl-7-(1-(oxetan-3-yl)-1H-pyrazol-4-yl)-3,4-dihydroquinoxaline-1(2H)-carboxylate]: the IC50 fell in the range of 0.1 to 1 µM in test [1]; 0.1 to 0.5 µM in test [2] (MV4-11, 72 h); 0.05 to 0.5 µM in test [3].
